The values below come from US20130085161A1, “PIPERIDINYL SUBSTITUTED 1,3-DIHYDRO-BENZOIMIDAZOL-2-YLIDENEAMINE DERIVATIVES” (NOVARTIS AG, priority 2010, published 2013).

The target of assay [1] is T1, BaF3-Tel-IGF1-R (Homo sapiens, UniProt P08069).
T1 construct: the kinase domain of IGF-1R (aa 976-1367) linked by a Ser-Arg-linker; expressed in transfected cells; host or cells: BaF3 murine proB-cell lymphoma cells, stably transduced
Description: BaF3 cell viability assay (resazurin/AlamarBlue), 96-well format. To be noted: 96-well plate format; 48 h incubation; resazurin dye reduction; cell proliferation/viability. It counts as cell-based. From the text:
BaF3-Tel-IGF1-R and BaF3-InsR are BaF3 murine proB-cell lymphoma cell derivatives [the BaF3 cell line (also termed Ba/F3) is available from the German Collection of Microorganisms and Cell Cultures (DSMZ), Braunschweig, Germany] that have been rendered IL-3-independent by stable transduction with kinase-activating fusions between human TEL (aa 1-452) and the kinase domain of IGF-1R (aa 976-1367) linked by a Ser-Arg-linker (Boulay et al, Cancer Res 68, 3743-3751, 2008), and a fusion between human TEL (aa 1-337) and the kinase domain (aa 1015-1382) of the Insulin receptor (Melnick J S et al, Proc Natl Acad Sci USA 103, 3153-3158, 2006), respectively. Cells are cultured in RPMI-1640 (Animed #1-14F01-1) supplemented with 2% L-glutamine (Animed #5-10K50-H) and 10% fetal calf serum (FCS, Animed #2-01F16-I). Wild-type, untransfected BaF3 cells are maintained in above medium plus 10 U/ml IL-3 (mouse Interleukin-3, Roche #1380745 or Invitrogen # PMC0035) and are used to identify non-selective, generally growth-inhibitory compounds. Cells (1.5×10^4 cells per well) are seeded in 190 μl fresh medium into 96-well plates. […] In addition, a plate blank value is routinely determined in a well containing only 100 μl of medium and no cells. […] Following incubation of the cells for 48 h at 37° C. and 5% CO2, the effect of inhibitors on cell viability is assessed by the resazurin sodium salt dye reduction assay (commercially known as AlamarBlue assay) basically as previously described (O'Brien J. et al., Eur. J. Biochem. 267: 5421-5426, 2000). […] Thereafter, fluorescence is measured using a Saphirell 96-well plate reader (TECAN, Männedorf, Switzerland) with the following settings: Excitation 544 nm and Emission 590 nm. […] The effect of a particular test compound concentration on cell proliferation and viability is expressed as percentage of the blank-corrected reading obtained for cells treated with vehicle only, which is set as 100%. IC50 values can be determined using XLfit (V4.2), applying standard four parameter logistic model #205 (IDBS, Guilford, UK) or other common curve-fitting software.
(In general: Alamar Blue is a resazurin reagent that responds to reducing activity.)

In assay [2] the target is T1, BaF3-Tel-IGF1-R. Description: BaF3 cell viability assay (resazurin), 384-well format. It counts as cell-based. To be noted: 384-well plate format; 48 h incubation; resazurin dye reduction; cell proliferation/viability. From the text: BaF3-Tel-IGF1-R and BaF3-InsR are BaF3 murine proB-cell lymphoma cell derivatives [the BaF3 cell line (also termed Ba/F3) is available from the German Collection of Microorganisms and Cell Cultures (DSMZ), Braunschweig, Germany] that have been rendered IL-3-independent by stable transduction with kinase-activating fusions between human TEL (aa 1-452) and the kinase domain of IGF-1R (aa 976-1367) linked by a Ser-Arg-linker (Boulay et al, Cancer Res 68, 3743-3751, 2008), and a fusion between human TEL (aa 1-337) and the kinase domain (aa 1015-1382) of the Insulin receptor (Melnick J S et al, Proc Natl Acad Sci USA 103, 3153-3158, 2006), respectively. Cells are cultured in RPMI-1640 (Animed #1-14F01-1) supplemented with 2% L-glutamine (Animed #5-10K50-H) and 10% fetal calf serum (FCS, Animed #2-01F16-I). Wild-type, untransfected BaF3 cells are maintained in above medium plus 10 U/ml IL-3 (mouse Interleukin-3, Roche #1380745 or Invitrogen # PMC0035) and are used to identify non-selective, generally growth-inhibitory compounds. Cells (1.5×10^4 cells per well) are seeded in 190 μl fresh medium into 96-well plates. 10 μl 20× compound solutions are added. As internal control, the kinase inhibitor PKC412 is routinely used. Control cells treated with DMSO (0.1% final concentration) serve as growth reference (set as 100% growth). In addition, a plate blank value is routinely determined in a well containing only […] of medium and no cells. IC50 determinations are performed based on eight 3-fold serial dilutions of the test compound, starting at 10 μM. Following incubation of the cells for 48 h at 37° C. and 5% CO2, the effect of inhibitors on cell viability is assessed by the resazurin sodium salt dye reduction assay (commercially known as AlamarBlue assay) basically as previously described (O'Brien J. et al., Eur. J. Biochem. 267: 5421-5426, 2000). Briefly, 20 μl dye solution is added per well and the plates incubated for 6 h at 37° C. and 5% CO2. Thereafter, fluorescence is measured using a Saphirell 96-well plate reader (TECAN, Männedorf, Switzerland) with the following settings: Excitation 544 nm and Emission 590 nm. For data analysis, the plate blank value is subtracted from all data points. The effect of a particular test compound concentration on cell proliferation and viability is expressed as percentage of the blank-corrected reading obtained for cells treated with vehicle only, which is set as 100%. IC50 values can be determined using XLfit (V4.2), applying standard four parameter logistic model #205 (IDBS, Guilford, UK) or other common curve-fitting software.
To achieve a higher throughput, the cell viability assay can also be performed in a 384-well format. Briefly, 4′500 freshly diluted cells are seeded in 54 μl/well into 384-well plates using a liquid dispenser. 6 μl 10× compound solution is added to the cell plate. As internal control, the kinase inhibitor PKC412 is routinely used. Control cells treated with DMSO (0.1% final concentration) serve as growth reference (set as 100% growth). In addition, a plate blank value is routinely determined in a well containing only 60 μl of medium and no cells. Dose-response effects are determined by 3-fold serial compound dilutions, starting at 10 μM. Following incubation of the cells for 48 h at 37° C. and 5% CO2, the effect of compounds on cell proliferation/viability is assessed by addition of 6 μl resazurin sodium salt dye solution per well. Following incubation for an additional 6 hrs at 37° C. and 5% CO2, fluorescence is measured using an Infiniti M1000 microplate reader (TECAN, Männedorf, Switzerland) with excitation and emission wavelengths set at 544 and 590 nm, respectively. For data analysis, the plate blank value is subtracted from all data points. IC50 values can be determined by four parameter logistic fitting as described above.

Each structure is given as a SMILES string. pIC50: −log10 of the molar value.

T1 sequence (P08069 976-1367): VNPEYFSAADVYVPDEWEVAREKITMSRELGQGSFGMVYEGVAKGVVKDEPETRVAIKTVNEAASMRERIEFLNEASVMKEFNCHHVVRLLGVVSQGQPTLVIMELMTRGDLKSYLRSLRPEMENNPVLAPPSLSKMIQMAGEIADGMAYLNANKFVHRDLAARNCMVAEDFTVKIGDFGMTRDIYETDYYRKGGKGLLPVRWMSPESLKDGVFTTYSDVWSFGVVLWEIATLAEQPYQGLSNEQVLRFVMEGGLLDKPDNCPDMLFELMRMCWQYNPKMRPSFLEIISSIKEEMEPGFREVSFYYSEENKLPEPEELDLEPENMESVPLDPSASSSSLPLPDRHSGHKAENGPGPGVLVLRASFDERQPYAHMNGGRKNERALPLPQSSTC

Consider `CC(=O)Nc1ccccc1N1CCC(n2c(=N)n(Cc3ccccc3Cl)c3ccccc32)CC1` [Example 56.6, N-(2-{4-[3-(2-Chloro-benzyl)-2-imino-2,3-dihydro-benzoimidazol-1-yl]-piperidin-1-yl}-phenyl)-acetamide], for which the pIC50 was 7.03 in assay [1] and 6.83 in assay [2].

As usually defined, the pIC50 is the negative decadic logarithm of the IC50, by convention in mol/L. Lower therefore signals a large IC50.
